Results: BindingDB's records for doi:10.1074/jbc.M512374200 (German Cancer Research Center, 2006)
pIC50: −log10 of the molar value.

Experiments:
[1] = target: cAMP-dependent protein kinase catalytic subunit alpha [L49I,V123M,E127D,Q181K,T183A] (Bos taurus, UniProt P00517, E127D/L49I/Q181K/T183A/V123M); assay: Kinase Activity Assay
Experimental: (§1) The enzyme activity was assayed by using an ATP regenerative NADH consuming system. The reaction was started with adding ATP to the mixture containing enzyme, substrate, and inhibitor. The decrease of NADH was time-dependent, and was measured at 340 nm with three independent measurements per data point. IC50 values were calculated using SigmaPlot 8.0 and Origin 5 software.

[2] = target: cAMP-dependent protein kinase catalytic subunit alpha [L49I,T183A] (Bos taurus, UniProt P00517, L49I/T183A); assay: Kinase Activity Assay
Experimental: as §1

[3] = target: cAMP-dependent protein kinase catalytic subunit alpha [L49I,Q181K,T183A] (Bos taurus, UniProt P00517, L49I/Q181K/T183A); assay: Kinase Activity Assay
Experimental: as §1

[4] = target: cAMP-dependent protein kinase catalytic subunit alpha (Bos taurus, UniProt P00517); assay: Kinase Activity Assay; conditions: pH 6.8; 25 °C
Experimental: as §1

[5] = target: cAMP-dependent protein kinase catalytic subunit alpha [T183A] (Bos taurus, UniProt P00517, T183A); assay: Kinase Activity Assay
Experimental: as §1

[6] = target: cAMP-dependent protein kinase catalytic subunit alpha [V123M] (Bos taurus, UniProt P00517, V123M); assay: Kinase Activity Assay; conditions: pH 6.8; 25 °C
Experimental: as §1

[7] = target: cAMP-dependent protein kinase catalytic subunit alpha [V123M,T183A] (Bos taurus, UniProt P00517, T183A/V123M); assay: Kinase Activity Assay
Experimental: as §1

[8] = target: cAMP-dependent protein kinase catalytic subunit alpha [Q181K,T183A] (Bos taurus, UniProt P00517, Q181K/T183A); assay: Kinase Activity Assay
Experimental: as §1

[9] = target: cAMP-dependent protein kinase catalytic subunit alpha [E127D] (Bos taurus, UniProt P00517, E127D); assay: Kinase Activity Assay
Experimental: as §1

[10] = target: cAMP-dependent protein kinase catalytic subunit alpha [V123M,Q181K,T183A] (Bos taurus, UniProt P00517, Q181K/T183A/V123M); assay: Kinase Activity Assay
Experimental: as §1

[11] = target: cAMP-dependent protein kinase catalytic subunit alpha [L49I] (Bos taurus, UniProt P00517, L49I); assay: Kinase Activity Assay; conditions: pH 6.8; 25 °C
Experimental: as §1

[12] = target: cAMP-dependent protein kinase catalytic subunit alpha [L49I,V123M,Q181K,T183A] (Bos taurus, UniProt P00517, L49I/Q181K/T183A/V123M); assay: Kinase Activity Assay
Experimental: as §1

[13] = target: T1, Rho-associated protein kinase 2 (Bos taurus, UniProt Q28021); assay: Kinase Activity Assay
T1 sequence (Q28021 whole entry): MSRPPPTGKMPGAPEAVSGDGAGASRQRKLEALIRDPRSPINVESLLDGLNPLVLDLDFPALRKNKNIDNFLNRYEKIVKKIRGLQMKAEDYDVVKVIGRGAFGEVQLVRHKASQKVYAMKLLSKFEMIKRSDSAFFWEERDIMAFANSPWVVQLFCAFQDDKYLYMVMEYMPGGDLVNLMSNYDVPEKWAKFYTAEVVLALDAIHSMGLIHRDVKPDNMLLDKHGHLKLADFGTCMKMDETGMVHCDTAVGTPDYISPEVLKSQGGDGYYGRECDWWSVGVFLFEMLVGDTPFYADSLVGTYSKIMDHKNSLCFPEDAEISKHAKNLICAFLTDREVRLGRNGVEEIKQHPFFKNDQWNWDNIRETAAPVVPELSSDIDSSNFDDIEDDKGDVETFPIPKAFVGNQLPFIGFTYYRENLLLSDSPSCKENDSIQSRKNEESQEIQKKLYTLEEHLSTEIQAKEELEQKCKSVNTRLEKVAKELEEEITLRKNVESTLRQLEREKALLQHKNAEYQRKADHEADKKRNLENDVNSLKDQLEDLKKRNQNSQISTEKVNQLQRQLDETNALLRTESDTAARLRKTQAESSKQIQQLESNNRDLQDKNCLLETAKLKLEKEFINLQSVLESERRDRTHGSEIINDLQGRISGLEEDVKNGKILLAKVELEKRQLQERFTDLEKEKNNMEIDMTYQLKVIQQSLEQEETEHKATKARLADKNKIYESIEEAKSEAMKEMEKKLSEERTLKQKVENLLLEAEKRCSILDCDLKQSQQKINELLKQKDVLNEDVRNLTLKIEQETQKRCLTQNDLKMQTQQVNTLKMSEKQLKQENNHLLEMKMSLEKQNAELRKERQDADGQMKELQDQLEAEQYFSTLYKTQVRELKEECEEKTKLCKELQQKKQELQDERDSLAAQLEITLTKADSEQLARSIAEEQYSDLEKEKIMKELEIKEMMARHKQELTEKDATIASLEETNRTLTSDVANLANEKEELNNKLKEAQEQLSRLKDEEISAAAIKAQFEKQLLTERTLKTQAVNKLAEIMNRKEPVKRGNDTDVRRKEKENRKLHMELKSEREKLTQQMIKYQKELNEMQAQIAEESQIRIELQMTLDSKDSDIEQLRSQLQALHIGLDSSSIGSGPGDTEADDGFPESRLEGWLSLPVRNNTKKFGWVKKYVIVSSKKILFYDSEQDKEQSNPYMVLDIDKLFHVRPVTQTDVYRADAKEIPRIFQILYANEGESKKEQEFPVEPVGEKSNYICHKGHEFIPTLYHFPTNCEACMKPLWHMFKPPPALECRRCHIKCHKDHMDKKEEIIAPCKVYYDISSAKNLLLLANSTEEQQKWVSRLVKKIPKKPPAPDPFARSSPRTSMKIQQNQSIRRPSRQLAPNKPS
Experimental: as §1

[14] = target: T1, Rho-associated protein kinase 2; assay: Kinase Inhibition Assay
Experimental: The kinase activity was determined by incubation of enzyme and its substrate, and test compound, in the presence ATP/[gamma-33P] ATP. After incubation, the reaction was stopped, and the 33P-phosphorylated substrate was determined by scintillation counting.

pIC50 [1]	pIC50 [2]	pIC50 [3]	pIC50 [4]	pIC50 [5]	pIC50 [6]	pIC50 [7]	pIC50 [8]	pIC50 [9]	pIC50 [10]	pIC50 [11]	pIC50 [12]	pIC50 [13]	SMILES	pIC50 [14]
5.22	4.92	5.22	4.38	5.05	4.22	4.51	5.05	4.80	4.60	4.55	4.74	6.30	C[C@@H](N)[C@H]1CC[C@H](C(=O)Nc2ccncc2)CC1 [4-[(1R)-1-aminoethyl]-N-(pyridin-4-yl)cyclohexane-1-carboxamide]	–
–	–	–	6.40	6.96	5.82	6.53	6.96	6.31	6.65	6.37	7.05	> 7.35	Cc1cncc2cccc(S(=O)(=O)N3CCCNC[C@@H]3C)c12 [H-1152]	–

The next lines start with the compound.

SMILES	pIC50 [1]	pIC50 [2]	pIC50 [3]	pIC50 [4]	pIC50 [5]	pIC50 [6]	pIC50 [7]	pIC50 [8]	pIC50 [9]	pIC50 [10]	pIC50 [11]	pIC50 [12]	pIC50 [13]	pIC50 [14]
CN[C@@H]1C[C@H]2O[C@@](C)([C@@H]1OC)n1c3ccccc3c3c4c(c5c6ccccc6n2c5c31)C(=O)NC4	–	–	–	–	–	–	–	–	–	–	–	–	–	8.92
CCCCCCOC(=O)[C@]1(O)C[C@@H]2O[C@@]1(C)n1c3ccccc3c3c4c(c5c6ccccc6n2c5c31)C(=O)NC4 [hexyl (15R,16S,18S)-16-hydroxy-15-methyl-3-oxo-28-oxa-4,14,19-triazaoctacyclo[12.11.2.1^{15,18}.0^{2,6}.0^{7,27}.0^{8,13}.0^{19,26}.0^{20,25}]octacosa-1(26),2(6),7(27),8(13),9,11,20(25),21,23-nonaene-16-carboxylate]	5.89	–	5.26	7.25	> 7.35	6.65	–	> 7.35	5.74	7.17	4.99	5.70	5.74	–
O=S(=O)(c1cccc2cnccc12)N1CCCNCC1 [AT877]	–	–	–	–	–	–	–	–	–	–	–	–	6.31	–
